{"source": "patent US9476099B2", "about": "(TRUSTEES OF DARTMOUTH COLLEGE, priority 2012, dated 2016)", "key": {"[1]": {"system": "833K cells", "assay": "Cell-Titre Glo viable cell growth and survival, 3 day decitabine", "type": "cell-based", "conditions": "Homo sapiens, 72 h, 3 day treatment, FIG. 1, read-out: IC50, growth inhibition", "experimental": "(§1) Indicated doses of decitabine were added fresh each day for three days to exponentially growing cultures. Viable cell growth and survival were measured. Data are normalized to no drug treatment. EC cells are NT2/D1, NT2D1/R1, 833K, 833KCP, and Tera-1. Data are the average of 3 experiments in biological duplicate except for MCF-7 cells, which were assayed twice. Error bars are standard deviation (S.D.).\n(§2) Cell growth and viability of five EC cell lines (NT2/D1, NT2D1/R1, 833K, 833KCP, and Tera-1) were determined, including two cell lines that are cisplatin-resistant (NT2/D1-R1 and 833KCP). Three control somatic tumor cell lines were also tested (HCT116, MCF7 and U2OS). […] Viable cell growth and survival were measured using Cell-Titre Glo (Promega) assays. […] These higher values are similar to the values shown in FIG. 1 for somatic tumor cell lines (MCF7, U2OS and HCT116).\n(§3) NT2/D1, NT2D1-R1, 833K, 833K-CP, Tera-1, U20S, and HCT116 cells were cultured in DMEM with 10% FBS supplemented with glutamine and antibiotics except for MCF7 cells that were cultured in F12-DMEM. The derivation of the NT2/D1-resistant NT2/D1-R1 cell line has been previously described (Curtin et al. 2001. Oncogene 20:2559-2569; Kerley-Hamilton et al. 2007. Biochim. Biophys. Acta 1769:209-219). Cells were treated with the indicated dosages of 5-azadeoxycytidine (5-aza-CdR) for 3 days. This drug was replenished each day. […]"}, "[2]": {"system": "833K-CP cells", "assay": "Cell-Titre Glo viable cell growth and survival, 3 day decitabine", "type": "cell-based", "conditions": "2.5 nM, FIG. 1", "experimental": "as §1, §2, §3"}, "[3]": {"system": "phosphorylated H2AX in NT2/D1-R1 cells", "assay": "DNA damage by induction of phosphorylated H2AX (western blot)", "type": "cell-based", "conditions": "three day decitabine treatment", "text": "Importantly, decitabine-mediated H2AX activation also occurs in the presence of the caspase 3 inhibitor (Z-VAD-FMK) at concentrations that inhibit PARP cleavage.\nSYBR green-based real-time PCR (Applied Biosystems) was employed using the ddCT method normalized to GAPDH. For western blot analysis cells were lysed in radioimmune precipitation buffer and separated by SDS-PAGE. Antibodies to actin (sc01615, Santa Cruz), 139-H2AX (Cell Signaling), PARP (c-2-10, Biomol International) and p53 (D0-1, Santa Cruz) were used."}, "[4]": {"system": "RIN1, SOX15 and TLR4 promoter in NT2/D1 cells", "assay": "Promoter specific bisulfite pyrosequencing", "type": "cell-based", "conditions": "10 nM, 3 days, FIG. 13", "text": "The graph depicts an average of triplicate sample determinations. Error bars are standard deviation. **=p<0.005. SOX15 values represent the average methylation value across two CpG sites. RIN1 and TRL4 values represent the average methylation across three CpG sites.\n(§4) However, methylation changes were less robust in the experiments in NT2/D1 cells. Only 12 genes were identified as having significant decreases in promoter methylation. […] These six genes included RIN1, SOX15, TLR4, GPER, TRIM54, and CD164L2.\nGenomic DNA was isolated with the QIAMP DNA mini kit (Qiagen) and bisulfite converted with the EZ DNA methylation kit (Zymo Research). DNA was amplified with HOTSTARTAQ plus DNA polymerase (Qiagen). The LINE-1 pyrosequencing assay averages across four CpG sites and has been described previously (Kashiwagi et al. 2011. Nucleic Acids Res. 39:874-888). Pyrosequencing assays for RIN1, SOX15, and TLR4 were designed with PyroMark assay design software (Qiagen) to sequence across corresponding probes cg0599842, cg02515422 and cg13098960 on the HumanMethylation27 BeadChip."}, "[5]": {"system": "gene promoters in NT2/D1 cells", "assay": "Global DNA promoter methylation analysis, HumanMethylation27 BeadChip", "type": "cell-based, human", "conditions": "3 day low dose decitabine", "experimental": "as §4\nDNA methylation analysis was performed in samples in triplicate using the […] […] assay with the HumanMethylation27 BeadChip ([…]) and the BeadChip was scanned on the BeadArray Reader ([…]), according to the manufacturer's instructions. Raw data was normalized and analyzed with Genome Studio software ([…]). The HumanMethylation27 BeadChip assays 27,578 CpGs covering more than 14,000 genes, mostly from promoter regions. […] Hierarchical clustering was performed as stated above. HumanMethylation27 BeadChip data and gene expression microarray data were submitted to NCBI GEO."}}, "data": [{"molecule": "Nc1ncn([C@H]2C[C@H](O)[C@@H](CO)O2)c(=O)n1", "note": "[decitabine, 5-aza-deoxycytidine]", "values": [{"measurement": "IC50", "setting": "[1]", "value": "5 to 25", "unit": "nM"}, {"measurement": "inhibition at 0.0025 µM", "setting": "[2]", "value": 10, "unit": "%"}, {"measurement": "DNA damage assessed by induction of phosphorylated H2AX", "setting": "[3]", "value": "induced DNA damage"}, {"measurement": "promoter methylation of RIN1, SOX15 and TLR4 (bisulfite pyrosequencing)", "setting": "[4]", "value": "decreased promoter methylation"}, {"measurement": "genes with significant decreases in promoter methylation", "setting": "[5]", "value": 12, "unit": "genes"}]}]}
